Measurements published in patent US8168619B1, “Hormonal composition based on a progestational agent and an oestrogen and use thereof” (Laboratoire Theramex, priority 1999, dated 2012).
Read-outs that look alike come from different tables or passages of the source.

How the values were obtained:
ovulation [1] = conditions: cited from earlier work
[2] = NEUMANN publication; cited from earlier work
[3] = Dose having a contraceptive effect (literature); type: in vivo; conditions: NEUMANN; reference progestative norgestrel (=1)
Excerpt: (§1) 2) Apart from the above, it would be reasonable to think that the doses claimed should be based on data from clinical pharmacology and/or clinical data previously published and commonly accepted. Now, if the doses defined as in the PLUNKETT patents are considered, it is easy to see that in most cases the active doses published already a long time ago, i.e. before the said patents were filed (NEUMANN, 1977) or more recently (KUHL, 1996), are very coherent but only rarely lie within the dose ranges claimed in the patents in the name of PLUNKETT (Table 2).

ovulation [4] = assay: Dose inhibiting ovulation (literature); type: in vivo; conditions: NEUMANN; reference progestative norgestrel (=1)
Excerpt: as §1

endometrium [5] = conditions: cited from earlier work
endometrial cells = assay: Sequential estrogen-progestative therapy: histological appearance of endometrium biopsy; type: in vivo, women; conditions: for Number of mitoses (% of section in which mitoses were present), Glands: with 30 μg ethinyl estradiol, biopsy Day 17-20 of second cycle
Description: (§2) Menopausal women, whether naturally or as the result of surgery, were subjected to a sequential estrogen-progestative therapy. From Day 1 to Day 12 they received 30 μg of ethinyl estradiol and then, from Day 13 to Day 22, the same dose of ethinyl estradiol associated with different doses of nomegestrol acetate or chlormadinone acetate. The doses were as follows:
(§3) The number of women was between 2 and 11, depending on the group. There was then a therapeutic pause of 7 days followed by a second treatment cycle.
(§4) The parameters taken into account were as follows: • the interval before periods commenced after the therapy had been interrupted, following the first and second treatment cycles; • the histological appearance of the endometrium recovered in a biopsy carried out between Day 17 and Day 20 of the second cycle.

menopausal women = assay: Sequential estrogen-progestative therapy: interval before periods after therapy is interrupted; type: in vivo; conditions: Day 13-22, with 30 μg ethinyl estradiol
Description: as §2, §3, §4

endometrium [6] = assay: Dose inducing transformation of the endometrium (literature); type: in vivo; conditions: NEUMANN; reference progestative norgestrel (=1)
Excerpt: as §1

[7] = NEUMANN publication; cited from earlier work; remark: listed apart in the source

Row | Compound | Dose necessary to inhibit ovulation (3) (ovulation [1]; NEUMANN publication) [µg/day] | Dose necessary to have a contraceptive effect (4) [2] [µg/day] | Dose ratio, Contraception (4) [3] | Dose necessary to induce transformation of the endometrium (1) (endometrium [5]; NEUMANN publication) [µg/day] | Dose ratio, Endometrium (1) (endometrium [6]) | Dose necessary to produce an adequate delay in the onset of periods (2), Menstruation [7] [µg/day] | further results
1 | CC(=O)O[C@]1(C(C)=O)CC[C@H]2[C@@H]3C=C(Cl)C4=CC(=O)[C@@H]5C[C@@H]5[C@]4(C)[C@H]3CC[C@@]21C [CIP acetate, Cyproterone acetate] | 1000 | 2000 | 8.0 | 1000 |  |  | Dose necessary to inhibit ovulation (3) (ovulation [1]; KUHL): 1000 µg/day; Dose ratio, Ovulation (3) (ovulation [4]): 10.0; Dose necessary to induce transformation of the endometrium (1) (endometrium [5]; KUHL): 2000 µg/day
2 | CC(=O)O[C@]1(C(C)=O)CC[C@H]2[C@@H]3C=C(Cl)C4=CC(=O)CC[C@]4(C)[C@H]3CC[C@@]21C [Chlormadinone acetate, chlormadinone acetate] |  |  |  |  |  |  | Number of mitoses (% of section in which mitoses were present), Glands (endometrial cells; 0.1 mg/day): 90%; Mitosis in glandular cells (endometrial cells; 1 mg/day, sequential therapy with 30 μg ethinyl estradiol): mitosis is still evident; Number of mitoses (% of section in which mitoses were present), Glands (endometrial cells; 1 mg/day): 50%; Number of mitoses (% of section in which mitoses were present), Glands (endometrial cells; 2 mg/day): 0%; Number of mitoses (% of section in which mitoses were present), Glands (endometrial cells; 5 mg/day): 0%; Number of mitoses (% of section in which mitoses were present), Glands (endometrial cells; 10 mg/day): 0%; Interval before the appearance of periods after the therapy is discontinued (menopausal women; 0.1 mg/day): -2.3 ± 0.5 days; Interval before the appearance of periods after the therapy is discontinued (menopausal women; 0.5 mg/day): 2.0 ± 0.6 days; Interval before the appearance of periods after the therapy is discontinued (menopausal women; 1.0 mg/day): 3.8 ± 0.3 days; Interval before the appearance of periods after the therapy is discontinued (menopausal women; 2.0 mg/day): 3.8 ± 0.3 days; Interval before the appearance of periods after the therapy is discontinued (menopausal women; 5 mg/day): 5.5 ± 1.5 days; Interval before the appearance of periods after the therapy is discontinued (menopausal women; 10 mg/day): 5.5 ± 0.5 days
3 | C#C[C@]1(O)CC[C@H]2[C@@H]3CCC4=CCCC[C@@H]4[C@H]3CC[C@@]21C [Lynoestrenol] |  | 2500 | 10.0 | 5000 | 4.2 |  | 
4 | CC(=O)O[C@]1(C(C)=O)CC[C@H]2[C@@H]3C[C@H](C)C4=CC(=O)CC[C@]4(C)[C@H]3CC[C@@]21C [MPA, medroxyprogesterone acetate] |  | 5000 | 20.0 | 5500 |  | 25000 | 
5 | C#C[C@]1(OC(C)=O)CC[C@H]2[C@@H]3CCC4=CC(=O)CC[C@@H]4[C@H]3CC[C@@]21C [Norethisterone acetate] | 800 | 1000 | 4.0 | 4500 | 3.8 |  | 
6 | C#C[C@]1(O)CC[C@H]2[C@@H]3CCC4=CC(=O)CC[C@@H]4[C@H]3CC[C@@]21C [Norethisterone] | 800 | 1000 | 4.0 | 12500 |  | 5000 | Dose necessary to inhibit ovulation (3) (ovulation [1]; KUHL): 400 µg/day; Dose necessary to induce transformation of the endometrium (1) (endometrium [5]; KUHL): 10000 µg/day
7 | C#C[C@]1(O)CC[C@H]2[C@@H]3CCC4=C(CCC(=O)C4)[C@H]3CC[C@@]21C [Norethynodrel] | 6000 | 2500 | 10.0 | 10000 | 8.3 | 7500 | 
